Test results: article PMC7961786, “Magic Peptide: Unique Properties of the LRR11 Peptide in the Activation of Leukotriene Synthesis in Human Neutrophils” (International Journal of Molecular Sciences, 2021)
Entries after “also recorded” stand apart in the source; their conditions may differ.

Key:
[1] = tested on: PMNLs; experiment: Phagocytosis of FITC-labeled S. typhimurium by neutrophils; type: cell-based, human; conditions: 1 µM ODN +/- 1 µM LRR11, FITC-labeled S. typhimurium 20 min; n = 3; Figure S2b
Protocol: Figure S2b. Influence of LRR11 and ODNs on phagocytic activity of neutrophils. PMNLs supplemented with 1 µM ODN +/- 1 µM LRR11, except for control samples containing HBSS/HEPES instead of ODNs, were incubated for 20 min in Eppendorf tubes at 37 °C in 5% CO2 with continuous stirring. FITC-labeled S. typhimurium were then added for next 20 min, followed by FACS analysis (excitation: 488 nm, emission: 525 nm). Both the relative amounts of PMNLs involved in phagocytosis (A, B) and the fluorescence intensities, reflecting the average number of bacteria captured per cell (C, D), were estimated. To distinguish between internalized and surface-bound bacterial cells, trypan blue at a working concentration of 1 mg/ml, was used to quench the surface FITC fluorescence caused by the attached bacteria. Thus, each series of samples was duplicated to obtain results both without (A, C) and with (B, D) TB quenching, which corresponds to the total interaction and uptake of bacteria. Averaged flow cytometry data are presented, including means ± SEM for the percentages of FITC-positive (i.e., phagocytic) cells (A, B), and mean ± SEM for fluorescence intensities of FITC-positive subpopulations (C, D) (n=3; * p < 0.05; ** p < 0.01 in comparison with corresponding controls, ns – non significant, as indicated by two-way ANOVA followed by Dunnett’s or Tukey’s multiple comparison tests). […]

[2] = tested on: human neutrophils (PMNLs); experiment: Binding and uptake of FAM-labeled ODNs by neutrophils (flow cytometry); type: cell-based; conditions: 1 µM LRR11, 0.15 µM FPS-ZM1; n = 3; Figure 7
Protocol: Figure 6 The LRR11 peptide affects the binding and uptake of ODNs by neutrophilic granulocytes. PMNLs (1 × 10^6/mL) in HBSS/HEPES were incubated for 20 min at 37 °C in 5% CO2 with 1 µM FAM-labeled ODN, supplemented or not with 1 µM LRR11 peptide. Both the total ODN accumulation (red) and its intracellular constituent (black) were analyzed by flow cytometry. Surface fluorescence was quenched by trypan blue (TB) solution. Values represent the means ± SEM of FAM fluorescence intensities (RFU, relative fluorescence units) (n = 8). ** p < 0.01; *** p < 0.005, **** p < 0.001 for specified data pairs, as indicated by two-way ANOVA followed by Tukey’s multiple comparison test. Mean fluorescence intensities of unstained PMNLs were 62 ± 12 and 39 ± 5.6 without or after TB quenching, respectively.
Figure 7 RAGE antagonist effect on oligonucleotide penetration into neutrophil cells. […] Both total oligonucleotide accumulation (A) and its intracellular constituent (B) were analyzed by flow cytometry. The surface fluorescence was quenched by trypan blue solution. Values represent the means ± SEM of FAM fluorescence intensities (RFU) (n = 3). * p < 0.05; […]; *** p < 0.005 for the pair of data specified, as indicated by two-way ANOVA followed by Tukey’s multiple comparison test. Fluorescence intensities of unstained controls were 62 ± 14 and 49 ± 6 without, or after TB quenching, respectively. […]

[3] = tested on: human neutrophils; experiment: Intracellular free Ca^2+ in neutrophils (Fluo-3); type: cell-based; conditions: Figure 9
Protocol: Figure 9 Effects of ODNs and LRR11 on intracellular concentration of free Ca^2+ in neutrophils. Fluo-3 AM-loaded neutrophils (1 × 10^6/mL) were cultured in fibrinogen-coated flat bottom plates in HBSS/HEPES medium supplemented or not with 1 µM LRR11, without additives or in the presence of 1 µM ODNs, at 37 °C, 5% CO2. Fluo-3 fluorescence signals (ex. 485 nm, em. 538 nm) were monitored with 2-min intervals. (A) Values represent the means ± SEM of fluorescence intensity increments in 7 min after the addition of stimulus (n = 3). * p < 0.05, ** p < 0.01, **** p < 0.001 compared with the control, as indicated by two-way ANOVA followed by Sidak’s multiple comparison test. (B) Representative blank corrected Fluo-3 fluorescence kinetic curves for control (square, black solid line), LRR11 (circle, black dotted line), A-CpG (square, red solid line) and LRR11_A-CpG mix (circle, red dotted line).
Intracellular Ca^2+ ions were detected by staining with Fluo-3, which is known to dramatically increase fluorescence after binding of calcium ions, was used. According to the manufacturer’s protocol, human neutrophils were incubated with 5 μM Fluo-3 AM ester (Thermo Fisher Scientific, Waltham, MA, USA) for 60 min at room temperature, followed by washing in PBS. Cells were then seeded in fibrinogen-coated 96-well plates (1 × 10^6/mL of HBSS/HEPES) and incubated at 37 °C in 5% CO2. Changes in fluorescence intensity upon excitation at 485 nm and emission at 538 nm were monitored at CLARIOstar fluorescence microplate reader for at least 60 min after stimulus injection, followed by data analysis using MARS Data Analysis Software, version 3.30 (both hardware and software are from BMG Labtech, Ortenberg, Germany).

Sequence: QLRKLNLSFNYQKRVSFAHLSLAPSFGSLV [LRR11, 30 amino acid peptide from leucine-rich repeat of TLR9]
- effect on bacteria engulfment [1]: LRR11 did not affect this
- effect of LRR11 on FPS-ZM1 inhibition of ODN internalization [2]: overcomes the inhibitory effect of FPS-ZM1; also recorded: the maximum ODN delivery into cells is observed in the presence of LRR11 and a RAGE antagonist
- effect of LRR11 on calcium ion influx with/without ODNs ([3]; 1 µM LRR11 +/- 1 µM ODNs): noticeable only in the absence of ODNs
- calcium influx ([3]; 1 µM LRR11 or 1 µM ODNs, Fluo-3, 37 °C, n = 3): potentiates calcium influx
- time course of cytoplasmic Ca^2+ concentration ([3]; 1 µM LRR11 or 1 µM ODNs): ensures long-term maintenance of an increased cytoplasmic Ca^2+ concentration
